# According to US12091425B2 (AMGEN INC., priority 2016, dated 2024):
# Key:
# [1] = tested on: OPM-2 human multiple myeloma cell line; assay: Cell Viability Assay (OPM-2 10 FBS); format: cell-based; settings: OPM-2 cells, CellTiter-Glo
# How it was run: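 OPM-2 myeloma cells, 3000/well in medium with 10% FBS, exposed to serially diluted compounds for 16 h at 37° C./5% CO2. Viability read by CellTiter-Glo luminescence; IC50 from 4-parameter logistic fit.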
# [2] = molecular target: T1, Mcl-1/Bim interaction, recombinant human Mcl-1 (171-327) (Homo sapiens, UniProt Q07820); assay: Cell free Mcl-1: Bim Affinity Assay (Mcl-1 HTRF); format: binding
# T1 construct: made in house
# How it was run: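 Compounds were mixed with the protein and a biotinylated Bim peptide spanning human residues 51-76. Plates were left overnight, then TR-FRET signal was measured. A four-parameter sigmoidal model applied to duplicate competition data gave IC50.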
# [3] = Homo sapiens, OPM-2, 16 h, 16 h
# [4] = TR-FRET, 0.1 nM Mcl-1 (171-327), 0.05 nM biotin-Bim (51-76)
# [5] = cell free Mcl-1:Bim TR-FRET, recombinant human Mcl-1 (171-327)
# [6] = Homo sapiens, OPM-2, 16 h, 16 h incubation
# T1 sequence (Q07820 171-327): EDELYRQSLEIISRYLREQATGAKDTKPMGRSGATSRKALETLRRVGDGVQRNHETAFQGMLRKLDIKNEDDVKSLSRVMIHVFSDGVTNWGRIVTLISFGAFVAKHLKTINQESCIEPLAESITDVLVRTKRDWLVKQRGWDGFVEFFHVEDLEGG
"IC50 [1, 3]","IC50 [2, 4]",Structure (SMILES),"IC50 [2, 5]",IC50 ([1]; 16 h),also measured
198 nM,0.249 nM,"CC[C@@H]1CC/C=C/[C@H](OCc2ncn(C)n2)[C@@H]2CC[C@H]2CN2C[C@@]3(CCCc4cc(Cl)ccc43)COc3ccc(cc32)C(=O)NS1(=O)=O [Example 423, (1S,3′R,6′R,7′S,8′E,12′R)-6-chloro-12′-ethyl-7′-((1-methyl-1H-1,2,4-triazol-3-yl)methoxy)-3,4-dihydro-2H,15′H-spiro[naphthalene-1,22′-[20]oxa[13]thia[1,14]diazatetracyclo[14.7.2.0^3,6.0^19,24]pentacosa [8,16,18,24]tetraen]-15′-one 13′,13′-dioxide]",–,–,–
24700 nM,–,"CC[C@@H]1CC/C=C/[C@H](O)[C@@H]2CC[C@H]2CN2C[C@@]3(CCCc4cc(Cl)ccc43)COc3cc(Cl)c(cc32)C(=O)NS1(=O)=O [Example 657, (1S,3′R,6′R,7′S,8′E,12′R)-6,17′-dichloro-12′-ethyl-7′-hydroxy-3,4-dihydro-2H,15′H-spiro[naphthalene-1,22′-[20]oxa[13]thia[1,14]diazatetracyclo[14.7.2.0^3,6.0^19,24]pentacosa[8,16,18,24]tetraen]-15′-one 13′,13′-dioxide]",11.2 nM,–,–
1250 nM,1.65 nM,CC1CC=CC(OCC(C)N2CCOCC2)C2CCC2CN2CC3(CCCc4cc(Cl)ccc43)COc3ccc(cc32)C(=O)NS(=O)(=O)C1CC1CC1 (stereo not shown) [Example 387],–,–,–
566 nM,0.218 nM,"CO[C@H]1/C=C/[C@H](CCO)C[C@@H](C)S(=O)(=O)NC(=O)c2ccc3c(c2)N(C[C@@H]2CC[C@H]21)C[C@@]1(CCCc2cc(Cl)ccc21)CO3 [Example 202, (1S,3′R,6′R,7′S,8′E,10′R,12′R)-6-chloro-10′-(2-hydroxyethyl)-7′-methoxy-12′-methyl-3,4-dihydro-2H,15′H-spiro[naphthalene-1,22′-[20]oxa[13]thia[1,14]diazatetracyclo[14.7.2.0^3,6.0^19,24]pentacosa [8,16,18,24]tetraen]-15′-one 13′,13′-dioxide]",–,–,–
2020 nM,–,"CC[C@@H]1CC/C=C/[C@H](OC)[C@@H]2CC[C@H]2CN2C[C@@]3(CCCc4cc(Cl)ccc43)COc3cc(F)c(cc32)C(=O)NS1(=O)=O [Example 701, (1S,3′R,6′R,7′S,8′E,12′R)-6-chloro-12′-ethyl-17′-fluoro-7′-methoxy-3,4-dihydro-2H,15′H-spiro[naphthalene-1,22′-[20]oxa[13]thia[1,14]diazatetracyclo[14.7.2.0^3,6.0^19,24]pentacosa [8,16,18,24]tetraen]-15′-one 13′,13′-dioxide]",1.44 nM,–,–
–,0.78 nM,"C[C@H]1[C@H](C)/C=C/[C@H](O)[C@@H]2CC[C@H]2CN2C[C@@]3(CCCc4cc(Cl)ccc43)COc3ccc(cc32)C(=O)NS(=O)(=O)[C@@H]1C (single isomer, unassigned) [Example 1042]",–,–,"IC50 [1, 6]: 393 nM"
6440 nM,38.5 nM,"COc1ccc(CN2[C@@H](C)C/C=C\[C@H](O)[C@@H]3CC[C@H]3CN3C[C@@]4(CCCc5cc(Cl)ccc54)COc4ccc(cc43)C(=O)NS2(=O)=O)cc1 (single isomer, unassigned) [Example 81]",–,–,–
410 nM,0.255 nM,"CNC(=O)CO[C@H]1/C=C/C[C@H](C)[C@@H](C)S(=O)(=O)NC(=O)c2ccc3c(c2)N(C[C@@H]2CC[C@H]21)C[C@@]1(CCCc2cc(Cl)ccc21)CO3 [Example 294, 2-(((1S,3′R,6′R,7′S,8′E,11′S,12′R)-6-chloro-11′,12′-dimethyl-13′,13′-dioxido-15′-oxo-3,4-dihydro-2H-spiro[naphthalene-1,22′-[20]oxa[13]thia[1,14]diazatetracyclo[14.7.2.0^3,6.0^19,24]pentacosa [8,16,18,24]tetraen]-7′-yl)oxy)-N-methylacetamide]",–,–,–
–,0.11 nM,"C[C@@H]1[C@@H](C)S(=O)(=O)NC(=O)c2ccc3c(c2)N(C[C@@H]2CC[C@H]2[C@@H](OCC(=O)N(C)C)/C=C/[C@@H]1C)C[C@@]1(CCCc2cc(Cl)ccc21)CO3 [Example 1052, 2-(((1S,3′R,6′R,7′S,8′E,10′S,11′S,12′R)-6-chloro-10′,11′,12′-trimethyl-13′,13′-dioxido-15′-oxo-3,4-dihydro-2H-spiro[naphthalene-1,22′-[20]oxa[13]thia[1,14]diazatetracyclo[14.7.2.0^3,6.0^19,24]pentacosa [8,16,18,24]tetraen]-7′-yl)oxy)-N,N-dimethylacetamide]",–,–,"IC50 [1, 6]: 95.7 nM"
154 nM,–,"CC1CC=CC(O)C2CCC2CN2CC3(CCCc4cc(Cl)ccc43)COc3ccc(cc32)C(=O)NS(=O)(=O)C1Cc1ccccc1 (single isomer, unassigned) [Example 648]",1.45 nM,–,–
131 nM,–,"COC1CC=CC(O)C2CCC2CN2CC3(CCCc4cc(Cl)ccc43)COc3ccc(cc32)C(=O)NS(=O)(=O)C1CC1CCCO1 (single isomer, unassigned) [Example 638]",0.243 nM,–,–
11500 nM,–,"C=C1CCCC[C@@H](CC)S(=O)(=O)NC(=O)c2ccc3c(c2)N(C[C@@H]2CC[C@@H]12)C[C@@]1(CCCc2cc(Cl)ccc21)CO3 [Example 859, (1S,3′R,6′R,12′R)-6-chloro-12′-ethyl-7′-methylidene-3,4-dihydro-2H,15′H-spiro[naphthalene-1,22′-[20]oxa[13]thia[1,14]diazatetracyclo[14.7.2.0^3,6.0^19,24]pentacosa [16,18,24]trien]-15′-one 13′,13′-dioxide]",15.8 nM,–,–

# The next lines start with the compound.
Structure (SMILES),"IC50 [1, 3]","IC50 [2, 4]","IC50 [2, 5]",IC50 ([1]; 16 h),also measured
"O=C1NS(=O)(=O)[C@H](Cc2ccccc2)C/C=C/[C@H](O)[C@@H]2CC[C@H]2CN2C[C@@]3(CCCc4cc(Cl)ccc43)COc3ccc1cc32 (single isomer, unassigned) [Example 646]",–,–,45.3 nM,23700 nM,–
"C[C@@H]1C/C=C/[C@H](O)[C@@H]2CC[C@H]2CN2C[C@@]3(CCCc4cc(Cl)ccc43)COc3ccc(cc32)C(=O)NS(=O)(=O)N1 [Example 71, (1S,3′R,6′R,7′S,8′E,11R)-6-chloro-7′-hydroxy-11′-methyl-3,4-dihydro-2H,15′H-spiro[naphthalene-1,22′-[20]oxa[13]thia[1,12,14]triazatetracyclo[14.7.2.0^3,6.0^19,24]pentacosa[8,16,18,24]tetraen]-15′-one 13′,13′-dioxide]",3160 nM,2.62 nM,–,–,–
"COCCO[C@H]1/C=C/C[C@H](C)NS(=O)(=O)NC(=O)c2ccc3c(c2)N(C[C@@H]2CC[C@H]21)C[C@@]1(CCCc2cc(Cl)ccc21)CO3 [Example 68, (1S,3′R,6′R,7′S,8′E,11′S)-6-chloro-7′-(2-methoxyethoxy)-11′-methyl-3,4-dihydro-2H,15′H-spiro[naphthalene-1,22′-[20]oxa[13]thia[1,12,14]triazatetracyclo[14.7.2.0^3,6.0^19,24]pentacosa[8,16,18,24]tetraen]-15′-one 13′,13′-dioxide]",248 nM,0.359 nM,–,–,–
"CO[C@H]1/C=C/[C@@H]2CCC[C@H](C2)S(=O)(=O)NC(=O)c2ccc3c(c2)N(C[C@@H]2CC[C@H]21)C[C@@]1(CCCc2cc(Cl)ccc21)CO3 (single isomer, unassigned) [Example 108]",–,1.13 nM,–,2250 nM,–
"COCCO[C@H]1/C=C/C[C@H](C)CS(=O)(=O)NC(=O)c2ccc3c(c2)N(C[C@@H]2CC[C@H]21)C[C@@]1(CCCc2cc(Cl)ccc21)CO3 (single isomer, unassigned) [Example 376]",–,0.403 nM,–,222 nM,–
"COC(=O)CO[C@H]1/C=C/CC[C@@H](C2CC2)S(=O)(=O)NC(=O)c2ccc3c(c2)N(C[C@@H]2CC[C@H]21)C[C@@]1(CCCc2cc(Cl)ccc21)CO3 (single isomer, unassigned) [Example 161]",–,1.31 nM,–,86 nM,–
CC[C@@H]1CC/C=C/[C@H](O[C@H](C)C(=O)O)[C@@H]2CC[C@H]2CN2C[C@@]3(CCCc4cc(Cl)ccc43)COc3ccc(cc32)C(=O)NS1(=O)=O [Example 1005],–,0.157 nM,–,–,IC50 ([1]; 16 h incubation): 4110 nM
"O=C1NS(=O)(=O)C[C@@H]2C[C@@H]2/C=C/[C@H](O)[C@@H]2CC[C@H]2CN2C[C@@]3(CCCc4cc(Cl)ccc43)COc3ccc1cc32 (single isomer, unassigned) [Example 784]",–,–,2.69 nM,14200 nM,–
"CO[C@H](C)C[C@H]1CC/C=C/[C@H](O)[C@@H]2CC[C@H]2CN2C[C@@]3(CCCc4cc(Cl)ccc43)COc3ccc(cc32)C(=O)NS1(=O)=O (single isomer, unassigned) [Example 514]",–,–,0.391 nM,165 nM,–
COCC1COCCN1CCOC1C=CCC(C)C(C)S(=O)(=O)NC(=O)c2ccc3c(c2)N(CC2CCC21)CC1(CCCc2cc(Cl)ccc21)CO3 (mixture of isomers) [Example 530],–,–,0.763 nM,134 nM,–
"COC[C@@H]1C[C@@H](C)/C=C/[C@H](OC)[C@@H]2CC[C@H]2CN2C[C@@]3(CCCc4cc(Cl)ccc43)COc3ccc(cc32)C(=O)NS1(=O)=O (single isomer, unassigned) [Example 473]",–,–,0.369 nM,160 nM,–
CC(C)OC(=O)C[C@@H]1[C@@H](C)C/C=C\[C@H](O)[C@@H]2CC[C@H]2CN2C[C@@]3(CCCc4cc(Cl)ccc43)COc3ccc(cc32)C(=O)NS1(=O)=O [Example 568],–,–,1.1 nM,1310 nM,–
"COc1ccc(CN2[C@@H](C)C/C=C/[C@H](O)[C@@H]3CC[C@H]3CN3C[C@@]4(CCCc5cc(Cl)ccc54)COc4ccc(cc43)C(=O)NS2(=O)=O)cc1 (single isomer, unassigned) [Example 80]",6530 nM,8.98 nM,–,–,–
"COCCO[C@H]1/C=C/C(C)C[C@@H](COC)S(=O)(=O)NC(=O)c2ccc3c(c2)N(C[C@@H]2CC[C@H]21)C[C@@]1(CCCc2cc(Cl)ccc21)CO3 (single isomer, unassigned) [Example 1039]",–,0.389 nM,–,–,IC50 ([1]; 16 h incubation): 198 nM
